Assay results published in the supplement of paper PMC10307832.

How the values were obtained:
Assay in all cases: relative viability (nuclei count vs DMSO), 5 days (fraction); higher = more cells survive
XMD14-99 + Phenformin = compound: CN1CCN(CC1)C2=CC(=C(C=C2)NC3=NC(=C(S3)C(=O)C4=C(C=CC=C4Cl)Cl)N)OC [XMD14-99] + N=C(N)NC(=N)NCCc1ccccc1 [Phenformin] (partner 250 µM)
Procedure, shortened: (§1)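 For relative viability, nuclei counts in treated wells were divided by those in vehicle wells. Lung cancer cell lines had been pin-tool dosed in 1536-well plates the day after seeding and cultured for 5 days, then fixed and stained in one step (final 0.05% Triton X-100, 1% formaldehyde, 1 ug/ml Hoechst) and imaged at 4×. Doses were one drug alone or a fixed anchor-drug dose plus five library-drug doses (not always all listed) in √10 steps, and values are duplicate-plate medians.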

XMD14-99 + Luminespib = compound: CN1CCN(CC1)C2=CC(=C(C=C2)NC3=NC(=C(S3)C(=O)C4=C(C=CC=C4Cl)Cl)N)OC [XMD14-99] + CCNC(=O)c1noc(-c2cc(C(C)C)c(O)cc2O)c1-c1ccc(CN2CCOCC2)cc1 [Luminespib] (partner 0.01 µM)
Procedure, shortened: as §1

AZD1208 + Linsitinib = compound: N[C@@H]1CCCN(c2c(/C=C3\SC(=O)NC3=O)cccc2-c2ccccc2)C1 [AZD1208] + C[C@]1(O)C[C@@H](c2nc(-c3ccc4ccc(-c5ccccc5)nc4c3)c3c(N)nccn32)C1 [Linsitinib] (partner 1 µM)
Procedure, shortened: as §1

XMD14-99 + Decitabine = compound: CN1CCN(CC1)C2=CC(=C(C=C2)NC3=NC(=C(S3)C(=O)C4=C(C=CC=C4Cl)Cl)N)OC [XMD14-99] + Nc1ncn([C@H]2C[C@H](O)[C@@H](CO)O2)c(=O)n1 [Decitabine] (partner 2 µM)
Procedure, shortened: as §1

Row | Cell Line | relative viability (XMD14-99 + Phenformin; first compound 0.08 µM) | relative viability (XMD14-99 + Phenformin; first compound 0.8 µM) | relative viability (XMD14-99 + Phenformin; first compound 2.53 µM) | relative viability (XMD14-99 + Phenformin; first compound 8 µM) | relative viability (XMD14-99 + Luminespib; first compound 0.08 µM) | relative viability (XMD14-99 + Luminespib; first compound 0.8 µM) | relative viability (XMD14-99 + Luminespib; first compound 2.53 µM) | relative viability (XMD14-99 + Luminespib; first compound 8 µM) | relative viability (AZD1208 + Linsitinib; first compound 0.08 µM) | relative viability (AZD1208 + Linsitinib; first compound 0.253 µM) | relative viability (AZD1208 + Linsitinib; first compound 0.8 µM) | relative viability (AZD1208 + Linsitinib; first compound 2.53 µM) | relative viability (AZD1208 + Linsitinib; first compound 8 µM) | relative viability (XMD14-99 + Decitabine; first compound 0.08 µM) | relative viability (XMD14-99 + Decitabine; first compound 0.8 µM) | relative viability (XMD14-99 + Decitabine; first compound 2.53 µM) | relative viability (XMD14-99 + Decitabine; first compound 8 µM)
1 | A-427 | 0.431 | 0.31 | 0.259 | 0.231 | 1.02 | 1.07 | 0.875 | 0.617 | 1.12 | 1.12 | 1 | 1.17 | 1.02 | 0.537 | 0.545 | 0.541 | 0.521
2 | NCI-H460 | 0.517 | 0.498 | 0.431 | 0.325 | 0.0305 | 0.037 | 0.0277 | 0.0243 | 0.724 | 0.843 | 0.817 | 0.711 | 0.539 | 0.461 | 0.486 | 0.495 | 0.385
3 | NCI-H1703 |  |  |  |  |  |  |  |  | 0.751 | 0.56 | 0.602 | 0.651 | 0.508 |  |  |  | 
4 | NCI-H1792 | 0.286 | 0.379 | 0.234 | 0.167 | 0.543 | 0.456 | 0.354 | 0.326 | 0.474 | 0.648 | 0.446 | 0.439 | 0.467 | 0.497 | 0.499 | 0.549 | 0.326
5 | Calu-6 |  |  |  |  |  |  |  |  | 0.86 | 1.03 | 0.919 | 0.967 | 0.872 |  |  |  | 
6 | SW 1573 | 0.357 | 0.386 | 0.413 | 0.363 | 0.157 | 0.365 | 0.236 | 0.214 | 0.725 | 0.637 | 0.745 | 0.656 | 0.534 | 0.451 | 0.545 | 0.475 | 0.334
7 | RERF-LC-KJ | 0.425 | 0.45 | 0.375 | 0.388 | 1.26 | 1.13 | 1.05 | 0.822 | 0.892 | 0.883 | 0.815 | 0.794 | 0.702 | 0.737 | 0.674 | 0.665 | 0.506
8 | EMC-BAC-2 | 0.51 | 0.515 | 0.445 | 0.384 | 1.19 | 1.13 | 0.99 | 1.01 | 0.848 | 0.818 | 0.747 | 0.815 | 0.796 | 0.973 | 0.898 | 0.838 | 0.802
9 | LK-2 | 0.363 | 0.368 | 0.423 | 0.215 | 0.183 | 0.188 | 0.206 | 0.171 | 0.43 | 0.523 | 0.302 | 0.263 | 0.268 | 0.258 | 0.297 | 0.328 | 0.21
10 | NCI-H2228 | 0.382 | 0.344 | 0.168 | 0.152 | 0.147 | 0.19 | 0.153 | 0.104 | 0.493 | 0.596 | 0.546 |  | 0.356 |  |  |  | 
11 | NCI-H322M | 0.787 | 0.834 | 0.699 | 0.627 | 0.857 | 1.06 | 0.939 | 0.863 | 0.954 | 0.98 | 0.828 | 0.829 | 0.84 | 0.684 | 0.667 | 0.706 | 0.645
